Patent US7144864B2, “Carboxypeptidase R inhibiting peptide” (Hidechika Okada, priority 2002, dated 2006)
“Also recorded” adds a separate entry of the source. Bridge positions count the residues as written; N and C are the ends. Ends that are not written are not given here. Peptide text beside a SMILES is read from it.

Experiments:
[1] = target: T1, purified CPR (carboxypeptidase R) (Homo sapiens, UniProt Q96IY4); experiment: CPR kinetics: inhibition of CPR-catalysed hydrolysis of hippuryl-L-arginine; type: biochemical
T1 construct: from tissue
T1 sequence (Q96IY4 115-423): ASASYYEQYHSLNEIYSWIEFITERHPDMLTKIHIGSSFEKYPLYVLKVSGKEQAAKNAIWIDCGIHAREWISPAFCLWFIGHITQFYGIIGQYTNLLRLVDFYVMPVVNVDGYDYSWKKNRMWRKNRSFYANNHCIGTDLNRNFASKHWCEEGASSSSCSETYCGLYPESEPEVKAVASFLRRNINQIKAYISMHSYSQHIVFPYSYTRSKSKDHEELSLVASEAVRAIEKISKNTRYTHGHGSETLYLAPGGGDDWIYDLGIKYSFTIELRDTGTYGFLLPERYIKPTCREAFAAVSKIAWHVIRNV
Method: (§1) ProCPR was purified to homogeneity as previously described. […] CPN was purified to homogeneity as previously described. The enzyme gave three bands on SDS-PAGE at 83 kDa, 53 kDa and 50 kDa corresponding to the two large identical glycosylated subunits and the two smaller active subunits, respectively.
The activity of the CPR inhibitors was determined against purified CPR using hippuryl-L-arginine as the substrate. The peptides PCI-2K-R, CPI-2KR, PCI (500, 250/125/62.5, 50 mg/ml, respectively) or Tris-HCl buffer (50 mM; pH 7.5) were added to active CPR (40–320 mg/ml) at a 1:7 ratio. After thorough mixing, […] was incubated with various concentrations of hippuryl-L-arginine (1.2–6.0 mM), for 15 minutes at 37° C. The reaction was stopped with the addition of sodium phosphate buffer ([…]; 0.25 M), immediately followed by 3% cyanuric chloride in 1,4-dioxane ([…]). After mixing well, the generation of hippuric acid was determined by measuring the OD at 405 nm on a SpectraMAX 250 Microplate Spectrophotometer (Molecular Device Corporation, Sunnyvale, Calif., USA). Hippuric acid (0–2.0 mM) in Tris buffer was used as the standard.
A kinetics analysis of the CPR-catalysed hydrolysis of hippuryl-L-arginine in the absence and presence of inhibitory molecules was performed. The Lineweaver-Burk reciprocal plot, based on rearrangement of the Henri-Michaelis-Menten equation into a linear form, was applied:
[formula] where v (in mM sec^−1) is the instantaneous or initial velocity, [S] (mM) is the substrate concentration, Km(mM)is equivalent to the substrate concentration that yields half-maximal velocity and Vmax(mM sec^−1) is the maximum velocity. For competitive inhibition, where the inhibitor competes with the substrate for binding to the enzyme, the following mechanism was assumed: where
In competitive inhibition, the apparent Vmax is not affected with increasing inhibitor concentrations because once substrate binds the reaction proceeds normally (i.e. Vmax depends only on maximum ES complex concentration, which only depends on the total amount of enzyme present) However, the apparent Km increases (i.e. a higher substrate concentration is required for a given velocity) by a factor of [1+([I]/Ki)].
[formula] where Kmapp is the apparent Km for a given inhibitor concentration.
The Dixon plot (1/v versus [I] in the presence of different concentrations of substrate) provides a more diagnostic way of identifying the type of inhibition and determining the Ki: […]

[2] = target: T2, purified CPN (carboxypeptidase N) (Homo sapiens, UniProt P15169); experiment: CPN kinetics: effect on purified CPN with hippuryl-L-arginine as substrate; type: biochemical
T2 construct: corresponding to the two large identical glycosylated subunits and the two smaller active subunits; from tissue
T2 sequence (P15169 21-458): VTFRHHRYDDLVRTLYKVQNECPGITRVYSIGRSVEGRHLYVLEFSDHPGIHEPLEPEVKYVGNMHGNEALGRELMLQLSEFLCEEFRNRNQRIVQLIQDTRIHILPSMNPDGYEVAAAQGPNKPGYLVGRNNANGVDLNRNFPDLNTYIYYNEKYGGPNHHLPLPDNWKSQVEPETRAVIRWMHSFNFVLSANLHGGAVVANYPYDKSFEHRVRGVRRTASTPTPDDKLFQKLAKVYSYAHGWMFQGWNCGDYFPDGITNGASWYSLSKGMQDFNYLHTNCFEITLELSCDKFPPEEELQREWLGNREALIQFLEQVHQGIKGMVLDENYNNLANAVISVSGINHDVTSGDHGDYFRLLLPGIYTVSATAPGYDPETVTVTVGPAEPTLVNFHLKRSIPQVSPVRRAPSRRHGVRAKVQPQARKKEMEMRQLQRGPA
T2 sequence (P22792 22-545 partner): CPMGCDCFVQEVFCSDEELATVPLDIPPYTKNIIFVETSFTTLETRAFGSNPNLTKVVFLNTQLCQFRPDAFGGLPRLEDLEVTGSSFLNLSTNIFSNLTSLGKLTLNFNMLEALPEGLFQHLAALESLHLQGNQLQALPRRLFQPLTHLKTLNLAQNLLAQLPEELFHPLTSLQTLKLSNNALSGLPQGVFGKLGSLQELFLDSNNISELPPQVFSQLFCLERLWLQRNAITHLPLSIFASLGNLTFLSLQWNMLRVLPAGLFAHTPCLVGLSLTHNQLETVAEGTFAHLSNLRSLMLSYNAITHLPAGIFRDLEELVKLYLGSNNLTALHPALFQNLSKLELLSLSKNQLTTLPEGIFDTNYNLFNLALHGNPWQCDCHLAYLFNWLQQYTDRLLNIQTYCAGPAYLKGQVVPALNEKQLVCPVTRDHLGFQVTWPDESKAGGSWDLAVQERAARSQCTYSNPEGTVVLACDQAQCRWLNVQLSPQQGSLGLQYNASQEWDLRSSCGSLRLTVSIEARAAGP
Method: as §1
The effect of CPI-2KR on purified CPN was determined using hippuryl-L-arginine as the substrate. Guanidinoethylmercaptosuccinic acid (GEMSA) was used as a positive control. CPI-2KR ([…]), GEMSA ([…]) or Tris-HCl buffer (50 mM; pH 7.5) were added to CPN (10 mg/ml) at a 1:7 ratio. Identical conditions to those used for the CPR kinetics experiments were subsequently applied.

[3] = test system: TM-induced retardation of t-PA-induced fibrinolysis; experiment: TM-induced retardation of t-PA-induced fibrinolysis in human plasma (clot lysis); type: biochemical
Method: Human plasma was obtained by centrifugation of citrated blood at 3000 g for 15 minutes at room temperature. In a 96-well microtitre plate, […] of a thrombin/calcium mix [50 ml calcium (CaCl Q; 1 M), […] of thrombin (T; 500 U/ml) and 430 ml of Tris buffer (50 mM, pH 7.5)] was added followed by 10 ml of thrombomodulin (TM; final concentration 8 nM). Subsequently, 10 ml of peptide solution in Tris buffer (16 mg/ml […]), Tris buffer or PCI (50 mg/ml) were added. After the addition of 50 ml of a t-PA/plasma mix [[…] of t-PA (130 mg/ml) mixed with 1 ml of pre-warmed citrated plasma (37° C. for 5 minutes) ] the plate was immediately read at 420 nm every 5 minutes for 2 hours on a SpectraMAX 250 Microplate Spectrophotometer (Molecular Device Corporation, Sunnyvale, Calif., USA). Lysis time was defined as the time required for the absorbance to reach half the difference between the plateau reached after clotting and baseline achieved at clot lysis.

CPR = target: T3, CPR (Homo sapiens, UniProt Q96IY4); conditions: cited from earlier work
T3 sequence (Q96IY4 115-423): T1 sequence (Q96IY4 115-423)

In the case of `C[C@H](NC(=O)[C@H](CC(N)=O)NC(=O)[C@H](CCCCN)NC(=O)[C@H](C)NC(=O)[C@@H]1CCCN1C(=O)[C@H](CCCCN)NC(=O)[C@@H](N)CS)C(=O)N[C@@H](CCCNC(=N)N)C(=O)N[C@@H](CS)C(N)=O` [CPI-2KR] (H-CKPAKNARC-NH2; N-terminus assumed), the “Ki, fold higher than that of PCI” value [1] is reported as 6 fold, the “binding affinity for CPR, fold stronger than PCI-2K-R” value [1] is reported as about 46 fold and the “inhibitory activity against CPR (in words)” value [1] is reported as “competitive inhibitor”. For the same molecule, the “inhibitory activity against CPN” value ([2]; at 506 nM) was “did not exhibit any inhibitory activity”, the “effect on TM-induced retardation of t-PA-induced fibrinolysis (in words)” value (shortened to “effect on TM-induced retardation”) [3] was “synergistically accelerated fibrinolysis; also recorded: dose-responsive inhibition” and the “effective inhibitory concentration, fold higher than that of PCI” value [3] was 10 fold. The “effective inhibitory concentration on TM-induced retardation of t-PA-induced fibrinolysis” value ([3]; TM 8 nM) was 126 nM.
In the case of `N=C(N)NCCSC(CC(=O)O)C(=O)O` (centres unmarked) [GEMSA, guanidinoethylmercaptosuccinic acid], the “inhibitory activity against CPN” value ([2]; at 425 nM) is listed as “inhibited”, the “inhibitory activity against CPN” value ([2]; at 2.1 mM) is listed as “strong inhibitory activity” and the “concentration at which CPR is inhibited (literature [40])” value (CPR) is listed as 18 mM.
For “CPI-2KR-cyclic: cyclised CPI-2KR via N- and C-terminal cysteine residues, SEQ ID NO: 3 (CKPAKNARC; disulfide 1-9)”, the “effect on TM-induced retardation” value [3] was “dramatic loss of inhibitory activity”.
With “PCI-2K: PCI-derived peptide containing the two lysine residues, SEQ ID NO: 1 (NKPCKTHDD)” the “inhibitory activity against CPR (in words)” value [1] was “no activity was observed”.
With “PCI-R: PCI-derived peptide containing the arginine residue, SEQ ID NO: 2 (QACWNSART)” the “inhibitory activity against CPR (in words)” value [1] was “no activity was observed”.
For “PCI: small 39-residue protein (MW 4295 Da), potato carboxypeptidase inhibitor, SEQ ID NO: 4 (QQHADPICNKPCKTHDDCSGAWFCQACWNSARTCGPYVG) [reference compound]”, the Km ([1]; hippuryl-L-arginine substrate, Lineweaver-Burke, read-out: Km of CPR in the presence of the inhibitor) is given as 12.3 mM, the “effect on TM-induced retardation” value [3] is given as “permitting fibrinolysis to proceed” and the Ki (CPR; read-out: Ki against CPR (literature)) is given as 0.4 nM.
With “tetrapeptide C-terminal fragment of PCI: tetrapeptide C-terminal fragment of PCI (PYVG)” the “inhibitory activity against CPR (in words)” value [1] was “does not inhibit”.
